Among the data in patent US11136313B2, “Compounds, compositions, and methods for modulating CFTR” (Proteostasis Therapeutics, Inc., priority 2015, dated 2021) are Activity values, retold here.

The target of this test is T1, ΔF508-CFTR (Homo sapiens, UniProt P13569, DEL508-508).
T1 construct: Primary lung epithelial cells homozygous for the Cystic Fibrosis-causing ΔF508 mutation were differentiated for a minimum of 4 weeks; endogenous in cells; host or cells: primary lung epithelial cells (hBE) homozygous for ΔF508, differentiated at an air-liquid interface
Description: hBE equivalent current (Ieq) assay: AUC of equivalent chloride current after forskolin/VX-770 in primary lung epithelial cells homozygous for ΔF508. The note with it: relative to CFTR amplifier (Compound A)+VX-809 (3 uM), compound at 10 uM and Compound A at 3 uM, 24 h treatment. The format is cell-based. Here is the method:
ii. hBE Equivalent Current (Ieq) Assay
Primary lung epithelial cells homozygous for the Cystic Fibrosis-causing ΔF508 mutation were differentiated for a minimum of 4 weeks in an air-liquid interface on Costar 24 well HTS filter plates prior to the equivalent current (Ieq) measurements. Cells were apically mucus-washed for 30 minutes 24 h prior to treatment with compounds. The basolateral media was removed and replaced with media containing the compound of interest diluted to its final concentration from DMSO stocks. Treated cells were incubated at 37° C. and 5% CO2 for 24 hours. At the end of the treatment period, the media was changed to the Ieq experimental solution for 2 hours before the experiment and plates are maintained in a CO2-free incubator during this period. The plates containing the cells were then placed in pre-warmed heating blocks at 36° C.±0.5 for 15 minutes before measurements are taken. The transepithelial voltage (VT) and conductance (GT) were measured using a custom 24 channel current clamp (TECC-24) with 24 well electrode manifold. The Ieq assay measurements were made following additions with standardized time periods: • 1. The baseline VT and GT values were measured for approximately 20 minutes. • 2. Benzamil was added to block ENaC for 15 minutes. • 3. Forskolin plus VX-770 were added to maximally activate ΔF508-CFTR for 27 minutes. • 4. Bumetanide was added to inhibit the NaK2Cl cotransporter and shut-off secretion of chloride.
The activity data captured was the area under the curve (AUC) for the traces of the equivalent chloride current. The AUC was collected from the time of the forskolin/VX-770 addition until the inhibition by bumetanide addition. Correction in response to compound treatment was scored as the increase in the AUC for compound-treated samples over that of vehicle-treated samples.
(+ indicates activity<50% of an CFTR amplifier (Compound A)+VX-809 (3 uM) with compound at 10 uM and Compound A at 3 uM; ++ indicates activity>50% of CFTR amplifier+VX-809 (3 uM) with compound at 10 uM and Compound A at 3 uM.

T1 sequence (P13569 with tags, fused parts or gaps DEL508-508): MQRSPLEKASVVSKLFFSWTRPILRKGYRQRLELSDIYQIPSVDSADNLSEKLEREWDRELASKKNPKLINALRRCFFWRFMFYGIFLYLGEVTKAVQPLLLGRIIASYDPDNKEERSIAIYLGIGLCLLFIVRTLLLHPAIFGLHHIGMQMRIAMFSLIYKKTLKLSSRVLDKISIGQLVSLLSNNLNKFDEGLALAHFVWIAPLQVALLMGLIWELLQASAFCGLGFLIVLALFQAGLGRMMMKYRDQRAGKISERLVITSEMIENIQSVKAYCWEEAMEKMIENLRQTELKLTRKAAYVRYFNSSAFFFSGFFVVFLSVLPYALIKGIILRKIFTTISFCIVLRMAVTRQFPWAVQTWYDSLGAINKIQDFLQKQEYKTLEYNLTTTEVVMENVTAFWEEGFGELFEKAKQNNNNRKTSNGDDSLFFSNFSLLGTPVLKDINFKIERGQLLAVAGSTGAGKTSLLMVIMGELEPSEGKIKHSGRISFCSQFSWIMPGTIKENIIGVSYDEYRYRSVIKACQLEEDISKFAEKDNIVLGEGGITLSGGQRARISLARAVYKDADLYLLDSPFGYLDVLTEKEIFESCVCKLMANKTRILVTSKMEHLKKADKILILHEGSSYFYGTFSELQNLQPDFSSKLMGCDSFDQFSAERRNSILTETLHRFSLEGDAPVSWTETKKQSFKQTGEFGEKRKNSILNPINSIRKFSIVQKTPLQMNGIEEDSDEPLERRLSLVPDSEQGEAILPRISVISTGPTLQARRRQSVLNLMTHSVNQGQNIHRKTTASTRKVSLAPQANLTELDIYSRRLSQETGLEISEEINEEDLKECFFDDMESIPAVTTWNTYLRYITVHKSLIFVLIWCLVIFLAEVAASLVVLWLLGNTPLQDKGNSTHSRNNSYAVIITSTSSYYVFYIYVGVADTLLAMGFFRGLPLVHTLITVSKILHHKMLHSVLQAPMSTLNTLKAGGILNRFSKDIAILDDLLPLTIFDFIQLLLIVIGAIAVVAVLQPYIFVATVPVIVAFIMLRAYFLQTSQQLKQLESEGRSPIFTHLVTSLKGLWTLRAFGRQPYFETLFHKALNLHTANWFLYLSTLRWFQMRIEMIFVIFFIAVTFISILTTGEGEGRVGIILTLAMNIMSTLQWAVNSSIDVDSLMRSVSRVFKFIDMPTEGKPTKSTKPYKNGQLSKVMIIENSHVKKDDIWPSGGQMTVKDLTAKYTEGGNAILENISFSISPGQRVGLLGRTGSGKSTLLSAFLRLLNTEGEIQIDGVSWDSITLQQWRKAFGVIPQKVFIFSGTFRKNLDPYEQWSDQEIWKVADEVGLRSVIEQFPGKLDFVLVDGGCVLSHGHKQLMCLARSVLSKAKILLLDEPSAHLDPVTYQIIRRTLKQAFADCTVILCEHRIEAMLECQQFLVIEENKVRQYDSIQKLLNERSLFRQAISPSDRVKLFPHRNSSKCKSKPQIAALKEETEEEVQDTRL

Consider `CCc1ccc(OCCc2cccnc2)c2c(C(=O)O)cc(-c3sc4ccccc4c3C)nc12` [Compound 141, 8-Ethyl-2-(3-methyl-1-benzothiophen-2-yl)-5-[2-(pyridin-3-yl)ethoxy]quinoline-4-carboxylic Acid], for which the Activity entry was “+ (activity<50% of an CFTR amplifier (Compound A)+VX-809 (3 uM) with compound at 10 uM and Compound A at 3 uM)”.

As for `Cc1ccc(C)c2c(C(=O)O)cc(-c3oc4ccccc4c3Br)nc12` [Compound 39, 2-(3-Bromo-1-benzofuran-2-yl)-5,8-dimethylquinoline-4-carboxylic acid], the Activity entry was “+ (activity<50% of an CFTR amplifier (Compound A)+VX-809 (3 uM) with compound at 10 uM and Compound A at 3 uM)”. On to `Cc1c(-c2cc(C(=O)[O-])c3c(OC4CCOCC4)ccc(C)c3n2)oc2ccccc12.[Na+]` [Compound 332], for which the Activity result is “++ (activity>50% of CFTR amplifier+VX-809 (3 uM) with compound at 10 uM and Compound A at 3 uM)”. In the case of `Cc1c(-c2cc(-c3cc(O)[nH]n3)c3c(O[C@H](C)c4ccccc4)ccc(C)c3n2)oc2ccccc12` [Compound 274], the Activity entry was “+ (activity<50% of an CFTR amplifier (Compound A)+VX-809 (3 uM) with compound at 10 uM and Compound A at 3 uM)”. In the case of `Cc1c(-c2cc(C(=O)O)c3c(OC(F)F)ccc(C)c3n2)oc2ccccc12` [Compound 120, 5-(Difluoromethoxy)-8-methyl-2-(3-methyl-1-benzofuran-2-yl)quinoline-4-carboxylic acid], the Activity result is “++ (activity>50% of CFTR amplifier+VX-809 (3 uM) with compound at 10 uM and Compound A at 3 uM)”. Under `Cc1ccc(OCc2ccccc2)c2c(C(=O)O)cc(-c3csc4ccccc34)nc12` [Compound 95, 2-(1-Benzothiophen-3-yl)-5-(benzyloxy)-8-methylquinoline-4-carboxylic acid] stands “++ (activity>50% of CFTR amplifier+VX-809 (3 uM) with compound at 10 uM and Compound A at 3 uM)”. In the case of `Cc1c(-c2cc(C(=O)[O-])c3c(O[C@H]4C[C@@H](c5ccccc5)C4)ccc(C)c3n2)oc2ccccc12.[Na+]` [Compound 282, Sodium 8-Methyl-2-(3-methyl-1-benzofuran-2-yl)-5-[(1s,3s)-3-phenylcyclobutoxy]quinoline-4-carboxylate] it was “++ (activity>50% of CFTR amplifier+VX-809 (3 uM) with compound at 10 uM and Compound A at 3 uM)”; in that of `Cc1c(-c2cc(C(=O)[O-])c3c(O[C@H](C)c4ccc(S(N)(=O)=O)cc4)ccc(C)c3n2)oc2ccccc12.[Na+]` [Compound 237, Sodium 8-Methyl-2-(3-methyl-1-benzofuran-2-yl)-5-[(1R)-1-(4-sulfamoylphenyl)ethoxy]quinoline-4-carboxylate], “+ (activity<50% of an CFTR amplifier (Compound A)+VX-809 (3 uM) with compound at 10 uM and Compound A at 3 uM)”. Under `Cc1c(-c2cc(C(=O)[O-])c3c(O[C@@H](C)c4ccc(S(C)(=O)=O)cc4)ccc(C)c3n2)oc2ccccc12.[Na+]` [Compound 230, Sodium 5-[(1S)-1-(4-methanesulfonylphenyl)ethoxy]-8-methyl-2-(3-methyl-1-benzofuran-2-yl)quinoline-4-carboxylate] stands “++ (activity>50% of CFTR amplifier+VX-809 (3 uM) with compound at 10 uM and Compound A at 3 uM)”; under `Cc1c(-c2cc(C(=O)[O-])c3c(OCC4COC4)ccc(C)c3n2)oc2ccccc12.[Na+]` [Compound 343], “++ (activity>50% of CFTR amplifier+VX-809 (3 uM) with compound at 10 uM and Compound A at 3 uM)”; under `Cc1c(-c2cc(C(=O)[O-])c3c(OC[C@H]4C[C@@](C)(O)C4)ccc(C)c3n2)sc2ccccc12.[Na+]` [Compound 320], “++ (activity>50% of CFTR amplifier+VX-809 (3 uM) with compound at 10 uM and Compound A at 3 uM)”. Turning to `Cc1c(-c2cc(C(=O)O)c3c(C)ccc(OCc4ccccc4)c3n2)oc2ccccc12` [Compound 40, 8-(Benzyloxy)-5-methyl-2-(3-methyl-1-benzofuran-2-yl)quinoline-4-carboxylic acid], the Activity entry is “+ (activity<50% of an CFTR amplifier (Compound A)+VX-809 (3 uM) with compound at 10 uM and Compound A at 3 uM)”. With `CNS(=O)(=O)c1ccc([C@H](C)Oc2ccc(C)c3nc(-c4oc5ccccc5c4C)cc(C(=O)[O-])c23)cc1.[Na+]` [Compound 240, Sodium 8-Methyl-2-(3-methyl-1-benzofuran-2-yl)-5-[(1S)-1-[4-(methylsulfamoyl)phenyl]ethoxy]quinoline-4-carboxylate], the Activity entry is “++ (activity>50% of CFTR amplifier+VX-809 (3 uM) with compound at 10 uM and Compound A at 3 uM)”. For `CO[C@]1(C)CC[C@@H](COc2ccc(C)c3nc(-c4sc5ccccc5c4C)cc(C(=O)[O-])c23)CC1.[Na+]` [Compound 327], the Activity entry was “++ (activity>50% of CFTR amplifier+VX-809 (3 uM) with compound at 10 uM and Compound A at 3 uM)”. In the case of `Cc1c(-c2cc(C(=O)[O-])c3c(O[C@@H](C)c4ccc(S(N)(=O)=O)cc4)ccc(C)c3n2)oc2ccccc12.[Na+]` [Compound 238, Sodium 8-Methyl-2-(3-methyl-1-benzofuran-2-yl)-5-[(1S)-1-(4-sulfamoylphenyl)ethoxy]quinoline-4-carboxylate] it was “++ (activity>50% of CFTR amplifier+VX-809 (3 uM) with compound at 10 uM and Compound A at 3 uM)”.

With `Cc1c(-c2cc(C(=O)O)c3c(OCc4ccccc4)ccc(C)c3n2)sc2ccccc12` [Compound 33, 5-(Benzyloxy)-8-methyl-2-(3-methyl-1-benzothiophen-2-yl)quinoline-4-carboxylic acid], the Activity entry is “++ (activity>50% of CFTR amplifier+VX-809 (3 uM) with compound at 10 uM and Compound A at 3 uM)”. In the case of `CCc1ccc(OC(CC)c2ccccc2)c2c(C(=O)O)cc(-c3csc4ccccc34)nc12` (stereo in doubt) [Compound 185, 2-(1-Benzothiophen-3-yl)-8-ethyl-5-[(1S)-1-phenylpropoxy]quinoline-4-carboxylic acid] it was “++ (activity>50% of CFTR amplifier+VX-809 (3 uM) with compound at 10 uM and Compound A at 3 uM)”. For the molecule `Cc1c(-c2cc(C(=O)[O-])c3c(O[C@H]4C[C@H](c5ccccc5)C4)ccc(C)c3n2)sc2ccccc12.[Na+]` [Compound 283, Sodium 8-Methyl-2-(3-methyl-1-benzothiophen-2-yl)-5-[(1r,3r)-3-phenylcyclobutoxy]quinoline-4-carboxylate], the Activity result is “++ (activity>50% of CFTR amplifier+VX-809 (3 uM) with compound at 10 uM and Compound A at 3 uM)”.

In the case of `CCc1ccc(OCc2ccccc2)c2c(C(=O)O)cc(-c3coc4ccccc34)nc12` [Compound 169, 2-(1-Benzofuran-3-yl)-5-(benzyloxy)-8-ethylquinoline-4-carboxylic acid], the Activity entry is “++ (activity>50% of CFTR amplifier+VX-809 (3 uM) with compound at 10 uM and Compound A at 3 uM)”. As to `Cc1ccc(OC(C)c2ccccc2)c2c(C(=O)[O-])cc(-c3nc4ccccc4n3C)nc12.[Na+]` (centres unmarked) [Compound 407], the Activity result is “+ (activity<50% of an CFTR amplifier (Compound A)+VX-809 (3 uM) with compound at 10 uM and Compound A at 3 uM)”. Regarding `COC[C@H](Oc1ccc(C)c2nc(-c3sc4ccccc4c3C)cc(C(=O)[O-])c12)c1ccccc1.[Na+]` [Compound 308], the Activity entry was “++ (activity>50% of CFTR amplifier+VX-809 (3 uM) with compound at 10 uM and Compound A at 3 uM)”.

With `Cc1c(-c2cc(C(=O)O)c3c(OC4CC(c5ccccc5)C4)ccc(C)c3n2)oc2ccccc12` (centres unmarked) [Compound 75, 8-Methyl-2-(3-methyl-1-benzofuran-2-yl)-5-(3-phenylcyclobutoxy)quinoline-4-carboxylic acid], the Activity result is “++ (activity>50% of CFTR amplifier+VX-809 (3 uM) with compound at 10 uM and Compound A at 3 uM)”. As for `CCc1cc(C(C)(C)C)cc2c(C(=O)O)cc(-c3c(C)oc4ccccc34)nc12` [Compound 178, 6-tert-Butyl-8-ethyl-2-(2-methyl-1-benzofuran-3-yl)quinoline-4-carboxylic acid], the Activity result is “++ (activity>50% of CFTR amplifier+VX-809 (3 uM) with compound at 10 uM and Compound A at 3 uM)”. For `Cc1c(-c2cc(C(=O)[O-])c3c(O[C@H]4C[C@H](C5CCOCC5)C4)ccc(C)c3n2)oc2ccccc12.[Na+]` [Compound 350], the Activity result was “++ (activity>50% of CFTR amplifier+VX-809 (3 uM) with compound at 10 uM and Compound A at 3 uM)”. `CCc1ccc(O[C@H](C)c2ccccc2)c2c(C(=O)O)cc(-c3csc4ccccc34)nc12` [Compound 165]: the Activity entry was “++ (activity>50% of CFTR amplifier+VX-809 (3 uM) with compound at 10 uM and Compound A at 3 uM)”.

Regarding `Cc1c(-c2cc(C(=O)O)c3c(O[C@H]4CC[C@H](c5ncco5)CC4)ccc(C)c3n2)oc2ccccc12` [Compound 197], the Activity result is “++ (activity>50% of CFTR amplifier+VX-809 (3 uM) with compound at 10 uM and Compound A at 3 uM)”.
